From US8835429B2, “Pyrimidine compounds, their use as mTOR kinase and Pl3 kinase inhibitors, and their syntheses” (Wyeth LLC, priority 2009, dated 2014)
Like-named read-outs stand apart in the source and are kept apart here.

Experiments:
[1] = target: mTOR (Homo sapiens, UniProt P42345); test: mTOR enzyme assay (DELFIA, purified FLAG-TOR, His6-S6K substrate); type: biochemical; parameters: FLAG; details: 100 μM ATP, 2 hours
[2] = tested on: LNCap; test: In vitro cell growth assay (MTS), LNCap; type: cell-based; details: human prostate line, three days after drug treatment
Method: (§1) The cell lines used were human prostate lines LNCap and PC3MM2, human breast lines MDA468 and MCF7, human renal line HTB44 (A498), human colon line HCT116, and human ovarian line OVCAR3. Cells were plated in 96-well culture plates. One day following plating, the inhibitors were added to cells. Three days after drug treatment, viable cell densities were determined by metabolic conversion (by viable cells) of the dye MTS, a well-established cell proliferation assay. The assays were performed using an assay kit purchased from Promega Corp. (Madison, Wis.) following the protocol supplied with the kit. The MTS assay results were read in a 96-well plate reader by measuring absorbance at 490 nm. The effect of each treatment was calculated as percent of control growth relative to the vehicle-treated cells grown in the same culture plate.

[3] = tested on: MDA468; test: In vitro cell growth assay (MTS), MDA468; type: cell-based; details: human breast line MDA468, three days after drug treatment, read-out: MDA IC50
Method: as §1

[4] = target: PI3K-alpha (Homo sapiens, UniProt P42336); test: PI3K-alpha fluorescence polarization assay; type: biochemical; details: 20 μM PIP2, 25 μM ATP; read-out: PI3Kα IC50
Sequence of PI3K-alpha (P42336 whole entry, species assumed): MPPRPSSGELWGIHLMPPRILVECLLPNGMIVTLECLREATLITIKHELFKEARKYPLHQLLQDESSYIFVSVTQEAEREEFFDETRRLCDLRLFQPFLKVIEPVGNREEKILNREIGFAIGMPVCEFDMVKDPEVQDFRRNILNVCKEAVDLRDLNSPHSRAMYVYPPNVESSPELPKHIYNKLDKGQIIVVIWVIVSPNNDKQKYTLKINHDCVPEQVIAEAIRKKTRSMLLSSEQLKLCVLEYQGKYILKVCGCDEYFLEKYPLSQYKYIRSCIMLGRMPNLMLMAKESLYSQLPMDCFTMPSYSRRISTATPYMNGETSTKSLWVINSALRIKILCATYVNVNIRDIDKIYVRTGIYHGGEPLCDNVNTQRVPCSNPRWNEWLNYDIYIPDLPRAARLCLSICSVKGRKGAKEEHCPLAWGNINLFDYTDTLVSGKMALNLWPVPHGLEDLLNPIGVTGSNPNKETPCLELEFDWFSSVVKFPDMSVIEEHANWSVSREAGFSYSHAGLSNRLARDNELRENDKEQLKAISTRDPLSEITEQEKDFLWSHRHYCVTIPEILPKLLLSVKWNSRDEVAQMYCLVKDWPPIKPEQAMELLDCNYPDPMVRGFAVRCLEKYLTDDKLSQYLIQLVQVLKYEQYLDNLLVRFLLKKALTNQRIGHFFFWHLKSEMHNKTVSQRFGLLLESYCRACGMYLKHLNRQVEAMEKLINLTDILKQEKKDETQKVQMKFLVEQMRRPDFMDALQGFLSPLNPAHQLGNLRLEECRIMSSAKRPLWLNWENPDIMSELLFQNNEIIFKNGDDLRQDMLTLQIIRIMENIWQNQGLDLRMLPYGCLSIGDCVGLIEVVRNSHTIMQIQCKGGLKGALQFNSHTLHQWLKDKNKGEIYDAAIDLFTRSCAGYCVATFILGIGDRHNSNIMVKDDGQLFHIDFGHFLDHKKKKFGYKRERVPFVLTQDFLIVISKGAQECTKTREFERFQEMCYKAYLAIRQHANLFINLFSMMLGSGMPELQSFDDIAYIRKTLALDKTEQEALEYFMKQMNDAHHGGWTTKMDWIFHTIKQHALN
Sequence of PI3K-alpha (P27986 whole entry partner, species assumed): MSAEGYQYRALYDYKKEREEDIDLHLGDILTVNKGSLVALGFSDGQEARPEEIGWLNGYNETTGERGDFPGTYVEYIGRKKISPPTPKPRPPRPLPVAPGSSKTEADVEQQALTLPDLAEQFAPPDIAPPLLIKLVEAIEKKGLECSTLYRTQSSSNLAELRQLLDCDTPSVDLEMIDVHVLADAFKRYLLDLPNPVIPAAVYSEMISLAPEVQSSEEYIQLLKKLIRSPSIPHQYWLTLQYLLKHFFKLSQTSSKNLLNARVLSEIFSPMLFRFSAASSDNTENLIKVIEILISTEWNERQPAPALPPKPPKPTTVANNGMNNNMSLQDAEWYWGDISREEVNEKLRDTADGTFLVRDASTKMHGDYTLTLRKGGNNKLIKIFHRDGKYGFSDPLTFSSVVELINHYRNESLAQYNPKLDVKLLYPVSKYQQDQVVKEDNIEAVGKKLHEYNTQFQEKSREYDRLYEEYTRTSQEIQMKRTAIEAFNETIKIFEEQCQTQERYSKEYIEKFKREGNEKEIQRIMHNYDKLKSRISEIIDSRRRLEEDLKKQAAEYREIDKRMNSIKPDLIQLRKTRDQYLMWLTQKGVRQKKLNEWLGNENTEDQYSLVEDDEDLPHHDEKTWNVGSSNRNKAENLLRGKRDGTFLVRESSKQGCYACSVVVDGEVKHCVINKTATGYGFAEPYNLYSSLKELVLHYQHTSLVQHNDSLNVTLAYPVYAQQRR
Method: The reaction buffer was 20 mM HEPES, pH 7.5, 2 mM MgCl2, 0.05% CHAPS; and 0.01% βME (added fresh). The stop/detection buffer was 100 mM HEPES, pH 7.5, 4 mM EDTA, 0.05% CHAPS; ATP 20 mM in water; PIP2 (diC8, Echelon, Salt Lake City Utah cat #P-4508) 1 mM in water (MW=856.5). The GST-GRP was 1.75 mg/mL or 1.4 mg/mL in 10% glycerol. The red detector (TAMRA) was 2.5 μM. Nunc 384-well black polypropylene fluorescent plates were used for PI3K assays.
The assay is run by placing 5 μL of diluted enzyme per well, then 5 μL of diluted compound (or 9.5 μL enzyme then 0.5 μL compound in DMSO) is added and mixed. Then, 10 μL substrate is added to start the reaction. The samples are incubated 30-60 minutes, then the reaction is stopped by adding 20 μL stop/detector mix. PI3K is diluted with reaction buffer (e.g., 5 μL or 7.5 μL PI3K into 620 μL reaction buffer), and 5 μL of diluted enzyme is used per well. A 5 μL portion of reaction buffer or of drug diluted in buffer (e.g., 4 μL/100 so final DMSO is 1% in reaction) is added to each. Pipetting up and down mixes the samples. Alternatively, the enzyme can be diluted to 1215 μL. In this case 9.8 μL is added per well and 0.2 μL compound is added in DMSO.
To prepare 1 mL of substrate solution, 955 μL reaction buffer, 40 μL PIP2, and 2.5 μL ATP are mixed. 10 μL of substrate is added to each well to start the reaction. […] The stop/detector mix is prepared by mixing 4 μL red detector and 1.6 μL or 2.0 μL GST-GRP with 1 mL stop buffer, which results in 10 nM probe and 70 nM GST-GRP. 20 μL of the stop/detector mix is added to each well to stop the reaction. The plates are read after 30-90 minutes keeping the red probe solutions dark. For the zero time point, stop/detector mix is added to the enzyme just before adding substrate. For an extra control, stop/detector mix is added to buffer (no enzyme) and substrate or to just buffer (no substrate). […] The recommended reaction has 0.06 μL per 20 μL (0.015 μg/20 μL) or 0.01125 μg/15 μL or 0.75 μg/mL.
Plates are read on machines with filters for TAMRA. The units are mP with no enzyme controls reading app 190-220 mP units. Fully active enzyme reduces fluorescence polarization down to 70-100 mP after 30 minutes. An active compound raises the mP values halfway to control or to 120-150 mP units.

Sequence of mTOR (P42345 1360-2549 limits assumed): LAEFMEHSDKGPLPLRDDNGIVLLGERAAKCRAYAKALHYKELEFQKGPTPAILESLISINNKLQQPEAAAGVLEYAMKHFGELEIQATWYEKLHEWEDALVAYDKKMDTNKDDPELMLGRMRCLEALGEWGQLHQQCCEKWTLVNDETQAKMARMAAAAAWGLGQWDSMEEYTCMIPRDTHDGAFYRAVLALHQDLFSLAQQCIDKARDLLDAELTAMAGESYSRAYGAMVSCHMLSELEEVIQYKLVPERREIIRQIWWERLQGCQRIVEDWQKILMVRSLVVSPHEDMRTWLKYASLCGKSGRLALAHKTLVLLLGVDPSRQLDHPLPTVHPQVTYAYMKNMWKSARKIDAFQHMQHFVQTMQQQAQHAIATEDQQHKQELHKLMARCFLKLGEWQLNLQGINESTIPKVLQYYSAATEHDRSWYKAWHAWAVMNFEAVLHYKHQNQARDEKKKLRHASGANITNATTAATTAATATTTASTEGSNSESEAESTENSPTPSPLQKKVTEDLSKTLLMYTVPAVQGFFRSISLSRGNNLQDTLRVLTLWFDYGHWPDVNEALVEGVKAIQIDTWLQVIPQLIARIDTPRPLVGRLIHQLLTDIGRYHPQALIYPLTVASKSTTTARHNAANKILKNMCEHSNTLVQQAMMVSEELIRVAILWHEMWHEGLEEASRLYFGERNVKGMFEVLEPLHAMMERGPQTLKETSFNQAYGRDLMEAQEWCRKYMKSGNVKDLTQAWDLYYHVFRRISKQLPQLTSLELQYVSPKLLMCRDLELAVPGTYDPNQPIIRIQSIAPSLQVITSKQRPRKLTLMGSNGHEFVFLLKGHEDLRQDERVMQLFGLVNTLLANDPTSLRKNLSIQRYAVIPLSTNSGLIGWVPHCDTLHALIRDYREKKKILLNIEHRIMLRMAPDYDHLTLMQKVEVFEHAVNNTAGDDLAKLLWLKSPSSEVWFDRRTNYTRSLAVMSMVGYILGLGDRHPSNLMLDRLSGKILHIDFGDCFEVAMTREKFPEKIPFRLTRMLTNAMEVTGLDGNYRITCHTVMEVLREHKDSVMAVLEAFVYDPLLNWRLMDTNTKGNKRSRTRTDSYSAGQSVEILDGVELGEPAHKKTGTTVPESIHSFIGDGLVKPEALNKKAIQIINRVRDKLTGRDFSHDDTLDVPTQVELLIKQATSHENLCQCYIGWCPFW

SMILES	IC50 [1] [nM]	IC50 ([2]; LNCaP, 72 h) [nM]	IC50 [4] [nM]	IC50 [2] [nM]	IC50 ([3]; 72 h) [nM]	IC50 [3] [nM]
O=C(Nc1ccc(-c2nccc(N3CC4CCC(C3)O4)n2)cc1)OCCO [2-hydroxyethyl {4-[4-(8-oxa-3-azabicyclo[3.2.1]oct-3-yl)pyrimidin-2-yl]phenyl}carbamate]	165	4000	5070		24000	
CNC(=O)Nc1ccc(-c2cc(N3CC4CCC(C3)O4)nc(N3CC4CCC(C3)O4)n2)cc1 [1-[4-(2,6-di-8-oxa-3-azabicyclo[3.2.1]oct-3-ylpyrimidin-4-yl)phenyl]-3-methylurea]	20.5	1600	2490		4200	
CN1CCN(c2ccc(NC(=O)Nc3ccc(-c4nc(N5CC6CCC(C5)O6)cc(C(F)(F)F)n4)cc3)cc2)CC1 [1-[4-(4-methylpiperazin-1-yl)phenyl]-3-{4-[4-(8-oxa-3-azabicyclo[3.2.1]oct-3-yl)-6-(trifluoromethyl)pyrimidin-2-yl]phenyl}urea]	11	50	440		190	
O=C(Nc1ccncc1)Nc1ccc(-c2nc(N3C4CCC3COC4)cc(N3C4CCC3COC4)n2)cc1 [1-[4-(4,6-di-3-oxa-8-azabicyclo[3.2.1]oct-8-ylpyrimidin-2-yl)phenyl]-3-pyridin-4-ylurea]	0.655	3	954		19	
O=C(Nc1ccc(-c2nc(N3CC4CCC(C3)O4)cc(C(F)(F)F)n2)cc1)NC1CC1 [1-cyclopropyl-3-{4-[4-(8-oxa-3-azabicyclo[3.2.1]oct-3-yl)-6-(trifluoromethyl)pyrimidin-2-yl]phenyl}urea]	10.4	450	8160		3000	
CNC(=O)Nc1ccc(-c2nc(NC(C)C)cc(N3CC4CCC(C3)O4)n2)cc1 [1-methyl-3-(4-{4-[(1-methylethyl)amino]-6-(8-oxa-3-azabicyclo[3.2.1]oct-3-yl)pyrimidin-2-yl}phenyl)urea]	12	500	810		2100	
O=C(Nc1ccc(-c2nc(N3CC4CCC(C3)O4)cc(C(F)(F)F)n2)cc1)OCCO [2-hydroxyethyl {4-[4-(8-oxa-3-azabicyclo[3.2.1]oct-3-yl)-6-(trifluoromethyl)pyrimidin-2-yl]phenyl}carbamate]	15.5	950	5160		4000	
CN(Cc1ccc(NC(=O)Nc2ccc(-c3nc(CS(C)(=O)=O)cc(N4CC5CCC(C4)O5)n3)cc2)cc1)C(=O)OC(C)(C)C [tert-butyl methyl(4-{[(4-{4-[(methylsulfonyl)methyl]-6-(8-oxa-3-azabicyclo[3.2.1]oct-3-yl)pyrimidin-2-yl}phenyl)carbamoyl]amino}benzyl)carbamate]	30	210	1930		470	
CC(C)Nc1cc(N2C3CCC2COC3)nc(-c2ccc(NC(=O)Nc3ccncc3)cc2)n1 [1-{4-[4-(isopropylamino)-6-(3-oxa-8-azabicyclo[3.2.1]oct-8-yl)pyrimidin-2-yl]phenyl}-3-pyridin-4-ylurea]	1.4	13	2500		29	
O=C(Nc1ccc(-c2nc(-c3ccccc3)cc(N3CC4CCC(C3)O4)n2)cc1)NC1CC1 [1-cyclopropyl-3-{4-[4-(8-oxa-3-azabicyclo[3.2.1]oct-3-yl)-6-phenylpyrimidin-2-yl]phenyl}urea]	19.5	1000	3680		5000	
CN1CCN(c2ccc(NC(=O)Nc3ccc(-c4cc(N5CC6CCC(C5)O6)nc(N5CC6CCC(C5)O6)n4)cc3)cc2)CC1 [1-[4-(2,6-di-8-oxa-3-azabicyclo[3.2.1]oct-3-ylpyrimidin-4-yl)phenyl]-3-[4-(4-methylpiperazin-1-yl)phenyl]urea]	9.55	40	588		160	
O=C(Nc1ccncc1)Nc1ccc(-c2nccc(N3CC4CCC(C3)O4)n2)cc1 [1-{4-[4-(8-oxa-3-azabicyclo[3.2.1]oct-3-yl)pyrimidin-2-yl]phenyl}-3-pyridin-4-ylurea]	14.5	180	224		650	

Further lines, with some results ahead:

IC50 [1] [nM]	IC50 ([2]; LNCaP, 72 h) [nM]	IC50 [4] [nM]	IC50 [2] [nM]	SMILES	IC50 ([3]; 72 h) [nM]	IC50 [3] [nM]
8.2	700	3620		CC(C)Nc1cc(N2CC3CCC(C2)O3)nc(-c2ccc(NC(=O)NC3CC3)cc2)n1 [1-cyclopropyl-3-(4-{4-[(1-methylethyl)amino]-6-(8-oxa-3-azabicyclo[3.2.1]oct-3-yl)pyrimidin-2-yl}phenyl)urea]	4200	
2.8	180	101		O=C(Nc1ccc(-c2cc(N3CC4CCC(C3)O4)nc(-c3ccc(NC(=O)Nc4cccnc4)cc3)n2)cc1)Nc1cccnc1 [N,N″-{[6-(8-oxa-3-azabicyclo[3.2.1]oct-3-yl)pyrimidine-2,4-diyl]di-4,1-phenylene}bis(3-pyridin-3-ylurea)]	380	
5.75	1000	1810		CCNC(=O)Nc1ccc(-c2nc(CS(C)(=O)=O)cc(N3CC4CCC(C3)O4)n2)cc1 [1-ethyl-3-(4-{4-[(methylsulfonyl)methyl]-6-(8-oxa-3-azabicyclo[3.2.1]oct-3-yl)pyrimidin-2-yl}phenyl)urea]	1900	
3.2	220	69.5		O=C(Nc1ccncc1)Nc1ccc(-c2cc(N3CC4CCC(C3)O4)nc(-c3ccc(NC(=O)Nc4ccncc4)cc3)n2)cc1 [N,N″-{[6-(8-oxa-3-azabicyclo[3.2.1]oct-3-yl)pyrimidine-2,4-diyl]di-4,1-phenylene}bis(3-pyridin-4-ylurea)]	780	
3	90	242		CS(=O)(=O)Cc1cc(N2CC3CCC(C2)O3)nc(-c2ccc(NC(=O)Nc3ccc(N4CCNCC4)cc3)cc2)n1 [1-(4-{4-[(methylsulfonyl)methyl]-6-(8-oxa-3-azabicyclo[3.2.1]oct-3-yl)pyrimidin-2-yl}phenyl)-3-(4-piperazin-1-ylphenyl)urea]	110	
7.05	250	1080		CNC(=O)Nc1ccc(-c2nc(N3CC4CCC(C3)O4)cc(N3CC4CCC(C3)O4)n2)cc1 [1-[4-(4,6-di-8-oxa-3-azabicyclo[3.2.1]oct-3-ylpyrimidin-2-yl)phenyl]-3-methylurea]	1000	
0.58		44.5	41	NC(=O)c1ccc(NC(=O)Nc2ccc(-c3cc(N4CC5CCC(C4)O5)nc(-c4ccc(NC(=O)Nc5ccc(C(N)=O)cc5)cc4)n3)cc2)cc1 [4,4′-{[6-(8-oxa-3-azabicyclo[3.2.1]oct-3-yl)pyrimidine-2,4-diyl]bis(4,1-phenylenecarbamoylimino)}dibenzamide]		45
2.8	1200	990		CNC(=O)Nc1ccc(-c2cc(N3CC4CCC(C3)O4)nc(-c3ccc(NC(=O)NC)cc3)n2)cc1 [N′,N′″-{[6-(8-oxa-3-azabicyclo[3.2.1]oct-3-yl)pyrimidine-2,4-diyl]di-4,1-phenylene}bis(1-methylurea)]	1100	
